# Assays:
# [1] = tested on: rats suffered from acute pharyngitis caused by Staphylococcus aureus; test: Appearance behavior scoring and thymus weight, rat acute pharyngitis model caused by Staphylococcus aureus; format: in vivo, SD rats; conditions: ig, composition 3.5 g/kg, amoxicillin 0.36 g/kg, x ± s, n = 7
# Experimental: Formulations of medicinal solutions: before the test, distilled water was used to formulate a medicinal solution with a concentration of 0.35 g/ml, which was intragastrically administrated in 1 ml/100 g body weight/time, 2 times/day, and on 7th day after pre-administrations, modelling was started and the intragastric administration was continued for 5 days.
# On 1st day, at 1 h after Staphylococcus aureus infection, the positive medicinal group was intragastrically administrated at a dose of 0.36 g/kg (equivalently equal to the clinical dose of a human), 1 time/day for 5 consecutive days.
# With scoring standard (from Standards for Preparation of Animal Models Suffered from Acute Pharyngitis, enacted by Traditional Chinese medicine Experimental Pharmacology Professional Committee of Traditional Chinese Medicine Institute, Traditional Chinese Medicine Pharmacology and Clinics 2018; 34 (1)), according to weights, mobility, fur color and gloss of rats, they were classified into 4 grades, as shown in the following Table 4.
# [2] = tested on: rats suffered from acute pharyngitis caused by Staphylococcus aureus; test: Scoring of pharyngeal lesions, rat acute pharyngitis model; format: in vivo, SD rats; parameters: key to Pharyngeal inflammatory response grade of most animals: −: pharyngeal tissues were in light red color, and they had moist and glossy surfaces, and no secreted substances, no congestion, no swelling and other pathological phenomena; +: the mucosa in the pharynx had poor gloss, and there were a small amount of secreted substances, and slight congestions and swelling; ++: the mucosa in the pharynx was in a dark red color and poor in the gloss, and secreted substances exist therein, accompanying by moderate congestions and swelling and other phenomena; +++: the mucosa in the pharynx exhibited a dark red color, increased secretion of mucus, and evident congestion and swelling
# [3] = tested on: rats suffered from acute pharyngitis caused by Staphylococcus aureus; test: Peripheral white blood cell count and classification, rat acute pharyngitis model; format: in vivo, SD rats; conditions: composition 3.5 g/kg, amoxicillin 0.36 g/kg, x ± s, n = 7
# Text: Before each group of animals were scarified, blood was taken by cutting tails and smeared on plates to conduct routine blood examinations about number of white blood cells, lymphocyte percentages and neutrophils percentages.
# [4] = tested on: rats suffered from acute pharyngitis caused by Staphylococcus aureus; test: Pathological morphology of pharyngeal tissues (HE staining), rat acute pharyngitis model; format: in vivo, SD rats; conditions: HE sections, FIG. 2A-2D
# Experimental: Material taking: rats were anesthetized and pharyngeal tissues were taken and fixed in 4% paraformaldehyde for more than 24 h. The tissues were taken from the fixing solution and in a fume hood, the tissues at the target region were trimmed with a surgical knife. The trimmed tissues and the corresponding tags were placed in a dehydration box.
# Dehydration: the dehydration was conducted by placing the dehydration box in a hanging basket, and in a dehydration machine, the dehydration was conducted with alcohols with gradient concentrations in order. 75% alcohol 1 h-85% alcohol 1 h-90% alcohol 1 h-95% alcohol 1 h-anhydrous ethanol I 30 min-anhydrous ethanol II 30 min-alcohol benzene 5-10 min-xylene I 5-10 min-xylene II 5-10 min-wax I 1 h-wax II 1 h-wax III 1 h.
# Embedding: the tissues immersed with wax were embedded in an embedding machine. The molten wax was placed in an embedding frame first, and before it was solidified, the tissues were taken from the dehydration box and placed in the embedding frame according to requirements on embedded faces and corresponding tags were attached. They were cooled on a freezing table at −20° C., and after wax solidification, the wax block was taken from the embedding frame and trimmed.
# Slicing: the trimmed wax block was sliced on a paraffin slicing machine, in a thickness of 4 μm. […]
# [5] = tested on: rats suffered from acute pharyngitis caused by Staphylococcus aureus; test: Inflammatory factors in rat serum by ELISA, rat acute pharyngitis model; format: in vivo, SD rats; conditions: composition 3.5 g/kg, amoxicillin 0.36 g/kg, x ± s, n = 7
# Experimental: Rates were anesthetized. Blood was taken from abdominal aorta and injected into a procoagulant tube, standing for 45 min at room temperature, and it was centrifuged at 3500 rpm for 10 min. The supernatant was suction taken into a sterile EP tube and stored at −80° C. Before measurements, the samples were re-thawed at room temperature, and the IL-1β, IL-6 and TNF-α levels in serum were measured by enzyme-linked immunosorbent assay (ELISA). The operations were carried out according to the instruction of the kit, and each index was detected by an enzyme-labelled meter at the absorbance 450 nm.
# NF-κB = format: cell-based; conditions: dexamethasone 10 μM with TNF-α, 6 h; L/S; x ± SD, n = 18; model 4641.34, control 17.46
# Experimental: (§1) The 293T cells in the logarithmic growth phase were taken and inoculated into a 96-well cell culture plate at a density of 2×10^5 cell/mL, and after growth along the walls to 70-80%, a PEI (1 mg/ml) transfecting agent was used to simultaneously transfect them with ARE and NF-κB luciferase reporter plasmids pGL4.37, pGL4.32 (100 ng/well) and a renilla luciferase reported plasmid pGL4.75 (10 ng/well), and they were cultured for 24 h.
# (§2) After 24-h culture, the cells transfected with the ARE luciferase reporter plasmid pGL4.37 are added with tBHQ (10 μM) and safety concentrations of the sample solutions of the individual inventive pharmaceutical composition groups, and by setting a control group, and they were cultured 6 h; the cells transfected with NF-kB luciferase reporter plasmid pGL4.32 were respectively added with dexamethasone (10 μM) diluted by a TNF-α complete culture medium, and safety concentrations of the sample solutions of the individual inventive pharmaceutical composition groups, and by setting a control group, and a model group, and they were cultured for 6 h. The supernatant was discarded, and the cells were rinsed with PBS. After splitting, they were detected by using a Dual-Luciferase detection system. Each set of experiments were configured with 6 compound wells, with 3 repetitions. […]
# ARE = ARE luciferase reporter gene activity in transfected 293T cells; format: cell-based; conditions: tBHQ 10 μM, 6 h; relative luciferase activity L/S; x ± SD, n = 18; control 0.76
# Experimental: as §1, §2
# [6] = of 7 rats, composition 3.5 g/kg, amoxicillin 0.36 g/kg
compound,measurement,setting,value
CC1(C)S[C@@H]2[C@H](NC(=O)[C@H](N)c3ccc(O)cc3)C(=O)N2[C@H]1C(=O)O [Amoxicillin],Thymus gland,[1],0.26 ± 0.11 g
same,Fur gloss (appearance behavior score),[1]; index grade 0-3 (Table 4),1.14 ± 0.38
same,Mobility (appearance behavior score),[1]; index grade 0-3 (Table 4),1.43 ± 0.53
same,Pharyngeal lesions: number of animals in grade +,[2]; [6],6
same,Pharyngeal lesions: number of animals in grade ++,[2]; [6],1
same,Pharyngeal lesions: number of animals in grade +++,[2]; [6],0
same,Pharyngeal lesions: number of animals in grade −,[2]; [6],0
same,Pharyngeal inflammatory response grade of most animals,[2]; summary of Table 6,+
same,"L (%), percentages of lymphocytes",[3],76.37 ± 7.42 %
same,"N (%), percentages of neutrophils",[3],19.5 ± 6.77 %
same,"WBC (×10^9/L), white cells",[3],8.17 ± 30^ ×10^9/L
same,"Pathological morphology of pharyngeal tissues (inflammatory cell infiltration, mucosa recovery)",[4],very similar to those in the inventive pharmaceutical composition group
same,IL-1β (pg/mL) in peripheral blood,[5],254.04 ± 59.15 pg/mL
same,IL-6 (pg/mL) in peripheral blood,[5],28.21 ± 8.67 pg/mL
same,TNF-α (pg/mL) in peripheral blood,[5],145.14 ± 30.98 pg/mL
"C[C@@H]1C[C@H]2[C@@H]3CCC4=CC(=O)C=C[C@]4(C)[C@@]3(F)[C@@H](O)C[C@]2(C)[C@@]1(O)C(=O)CO [Dex, Dexamethasone]",NF-κB luciferase activity of 293T cells,NF-κB,968.61
"CC(C)(C)c1cc(O)ccc1O [tBHQ, Tertiary butylhydroquinone]",ARE luciferase activity of 293T cells,ARE,3.55

# — patent US20240261359A1, “PHARMACEUTICAL COMPOSITION FOR USE PREVENTING AND CURING RESPIRATORY DISEASES IN WINTER” (Tianjin University of Traditional Chinese Medicine, priority 2020, published 2024)
